Tests used:
Format in all cases: in vivo
[1] = tested on: a variety of weeds; test: Example 1: whole plot, summary of visual effect in words; conditions: Example 1 plot; after one day
Experimental: A quart of glyphosate herbicide was prepared using the label recommendations of the manufacturer (Monsanto) by adding 18 ml. (0.625 liq. oz.) of “Roundup® Super Concentrate” (41% isopropyl glyphosate), to water and bringing the final solution to 32 oz. liquid (Sol. A). To another 18 ml. of “Roundup Concentrate” was added 18 ml. of dimethyl azelate and this mixture diluted with water to 32 liq. oz. (Sol. B). Thus, each solution contained the same amount of glyphosate while Sol. B also contained 2% dimethyl azelate.
Sol. A was applied with a hand sprayer on a 2 ft. by 3 ft. plot of ground containing a variety of weeds. Sol. B was applied in the same manner on a similar adjacent plot containing the same variety of weeds. The temperature was in the mid-80's (° F.) during the test period with no rain.
The test plots were observed daily.

[2] = tested on: target weed; test: General observations on time to necrosis or kill of weeds
[3] = tested on: Mugwort (Artemisia vulgaris L.); test: Example 3: container-grown mugwort, spray treatment, necrosis and control; conditions: DMA 1.5 % W/W, 40 gal/A spray; for % Necrosis Day 1: Day 1, glyphosate 0.5 % W/W; for % Necrosis Day 3: Day 3, glyphosate 0.5 % W/W; for % Control Day 9: Day 9, glyphosate 0.5 % W/W; for % Control Day 12: Day 12, glyphosate 0.5 % W/W; for % Control Day 15: Day 15, glyphosate 0.5 % W/W; for % Control Day 19: Day 19, glyphosate 0.5 % W/W
Experimental: Mugwort (Artemisia vulgaris L.) rhizomes 2 to 3 inches in length were collected from established plants and planted into soil-less media in 16 fl. oz. size containers. Each container was a replicate and contained one plant. On Day 0, 14 to 18 inch height single stem plants of mugwort were treated with the solutions shown in Table 1 with calibrated hand pump sprayers with constant agitation. Each plant was sprayed with 14 hand pumps for a nominal 40 gal/A spray volume application. Treatments were irrigated and fertilized as needed.

[4] = tested on: Velvetleaf; test: Example 4: container-grown velvetleaf, backpack sprayer, necrosis and control; conditions: for % Necrosis After 1 Day / % Control 5 Days / % Control 9 Days / % Control 21 Days: velvetleaf, chlorimuron 0.31 lb.ai/A, dimethyl azelate 1.5 % W/W, 12 gal/A spray
Experimental: Chlorimuron is a sulfonylurea-type postemergence herbicide, sold by duPont under the trade name “Classic”. Dimethyl azelate (80% technical grade with 20% emulsifier) was added with the dilute herbicidal spray solution to determine if the rapidity and effectiveness of weed control was improved. A single nozzle flat fan wand backpack sprayer with C02 propellant calibrated for 12 gal/A spray volume was used to apply the treatments with a handheld wand applicator and constant walking speed. Velvetleaf plants of 6 to 8 inch height with 3 plants per 16 fl oz container in soil-less media were treated with the mixtures shown in the table below. Each treatment was applied to 3 containers to provide 3 replications per treatment. The dilute spray solutions were agitated during application. The effects of the treatment were observed daily for 21 days with the following results: […]

[5] = tested on: Rye (Secale cereale L); test: Example 6 Study 1: container-grown rye, spray treatment, necrosis and control; conditions: sethoxydin 0.01 % W/W, dimethyl azelate 3 % W/W, 25 gal/Acre spray; for % Necrosis After 3 Day: 3 days
Experimental: Rye (Secale cereale L) was grown in 16 fl. oz. containers in soil less media until 4 inches in height and then treated with the herbicidal compositions shown in Table 1 by spraying the herbicidal compositions with 4 pumps of a calibrated hand pump sprayer. The spray volume delivered was 25 gal/Acre. The containers contained approximately 12 rye plants per pot and each container was one replication. Treatments were in full sun with no wind. The effects of the treatments were observed over 3 weeks with the following results recorded: Sethoxydin, a cyclohexadione class herbicide, was obtained from BASF Corp. as “Poast”. The dimethyl azelate was a technical grade obtained from Cognis Corp.

[6] = tested on: corn (Zea mays L.); test: Example 6 Study 2: potted corn, spray treatment, necrosis and control; conditions: sethoxydin 0.01 % W/W, dimethyl azelate 3 % W/W, 13 gal/A spray; for % Necrosis After 3 Day: 3 days
Experimental: Rye (Secale cereale L) was grown in 16 fl. oz. containers in soil less media until 4 inches in height and then treated with the herbicidal compositions shown in Table 1 by spraying the herbicidal compositions with 4 pumps of a calibrated hand pump sprayer. The spray volume delivered was 25 gal/Acre. The containers contained approximately 12 rye plants per pot and each container was one replication. Treatments were in full sun with no wind. The effects of the treatments were observed over 3 weeks with the following results recorded: Sethoxydin, a cyclohexadione class herbicide, was obtained from BASF Corp. as “Poast”. The dimethyl azelate was a technical grade obtained from Cognis Corp. Another identical study was conducted with corn (Zea mays L.) with 3 plants per pot and 2 replications. The treatments were applied as 2 pumps per pot for a 13 gal/A spray volume to 6 inch height corn plants.

[7] = tested on: Momingglory, pitted (Ipomoea lacunosa L.); test: Example 5: potted pitted morningglory, spray treatment, epinasty and control; conditions: DMA 2.0 % W/W, 12 gpa spray
Experimental: Momingglory, pitted (Ipomoea lacunosa L.) was seeded into soil-less media in 16 fl oz plastic pots with 3 plants established per pot. Each pot was a replication. When the morningglory plants had two true leaves, control treatments were applied by 2 manual hand pumps from a calibrated hand-pump sprayer. The spray application was a nominal 12 gpa spray volume. The Day 0 treatments were applied as 2 replications with constant agitation of the dilute spray solution. Treatments were evaluated for a 21 day interval after application as follows: […]

O=C(O)CNCP(=O)(O)O [Glyphosate]
visual effect on the weeds of the plot, in words [1]: unaffected
time for weed and grass necrosis to approach 100% ([2]; without the addition of dimethyl azelate): 3 to 4 days
minimal necrosis times ([2]; without the diester): three to four
% Necrosis Day 1 [3]: 0%
% Necrosis Day 3 [3]: 0%
% Control Day 9 [3]: 53%
% Control Day 12 [3]: 100%
% Control Day 15 [3]: 100%
% Control Day 19 [3]: 100%

COc1cc(Cl)nc(NC(=O)NS(=O)(=O)c2ccccc2C(=O)O)n1 [Chlorimuron]
% Necrosis After 1 Day [4]: 0%
% Control 5 Days [4]: 48%
% Control 9 Days [4]: 53%
% Control 21 Days [4]: 23%

COC(=O)CCCCCCCC(=O)OC [DMA, Dimethyl azelate]
% Necrosis After 1 Day [5]: 13%
% Necrosis After 3 Day [5]: 15%
% Control 5 Days [5]: 8%
% Control 9 Days [5]: 0%
% Control 21 Days [5]: 0%
% Necrosis After 1 Day [6]: 18%
% Necrosis After 3 Day [6]: 15%
% Control 5 Days [6]: 13%
% Control 9 Days [6]: 0%
% Control 21 Days [6]: 0%
% Epinasty Day 5 (leaf distortion and downward twisting) ([7]; Day 5, 2,4-D ester 0.3 % W/W): 5%
% Control Day 7 ([7]; Day 7, 2,4-D ester 0.3 % W/W): 3%
% Control Day 10 ([7]; Day 10, 2,4-D ester 0.3 % W/W): 0%
% Control Day 14 ([7]; Day 14, 2,4-D ester 0.3 % W/W): 0%
% Control Day 21 ([7]; Day 21, 2,4-D ester 0.3 % W/W): 0%
% Necrosis Day 1 [3]: 49%
% Necrosis Day 3 [3]: 53%
% Control Day 9 [3]: 33%
% Control Day 12 [3]: 21%
% Control Day 15 [3]: 18%
% Control Day 19 [3]: 13%
response of velvetleaf, in words ([4]; dimethyl azelate alone, 1.5 % W/W): tolerant
% Necrosis After 1 Day [4]: 0%
% Control 5 Days [4]: 0%
% Control 9 Days [4]: 0%
% Control 21 Days [4]: 0%

CCC/C(=N\OCC)C1=C(O)CC(CC(C)SCC)CC1=O (stereo not shown) [Sethoxydin]
% Necrosis After 1 Day [5]: 0%
% Necrosis After 3 Day [5]: 3%
% Control 5 Days [5]: 24%
% Control 9 Days [5]: 79%
% Control 21 Days [5]: 94%
% Necrosis After 1 Day [6]: 0%
% Necrosis After 3 Day [6]: 3%
% Control 5 Days [6]: 10%
% Control 9 Days [6]: 40%
% Control 21 Days [6]: 88%

From patent US6710018B2, “Compositions containing a dicarboxylic acid diester and a post-emergent herbicide and a method of using the same” (Falcon Lab LLC, priority 2002, dated 2004)
